Data on five compounds can be found in patent US9850219B1, “Phenothiazine derivatives and methods of use thereof” (Acenda Pharma, Inc., priority 2016, dated 2017).

One data set deals with H441GL. In words: Cytotoxicity, sulforhodamine B (SRB) assay, H441GL. The data set is classed as cell-based, Human. To be noted: Homo sapiens, 48 h, NA indicates no activity.
A further data set deals with A549. Briefly: Cytotoxicity, sulforhodamine B (SRB) assay, A549. The class given is cell-based, Human. As to conditions: Homo sapiens, A549, 48 h, NA indicates no activity.
The test system of another data set is H1299. In words: Cytotoxicity, sulforhodamine B (SRB) assay, H1299. As to conditions: Homo sapiens, NCI-H1299, H1299, 48 h. The class given is cell-based. The text has this:
Human non-small cell lung cancer (NSCLC) cell lines (e.g., A549, H441GL and H1299), colon cancer cell lines (e.g., HCT116 and DLD1), breast cancer cell lines (e.g., MCF7 and MDA-MB-231), and pancreatic cancer cell lines (e.g., PANC-1 and SUIT-2) were used in cytotoxicity studies. […] A549 and H441GL are EGFR-wild type adenocarcinoma cell lines. H1299 is an EGFR-wild type large cell carcinoma cell line. HCT116 and DLD1 are metastatic colon cell lines. MCF7 is a hormone-responsive breast cancer cell line. MDA-MB-231 is a triple-negative breast cancer cell line. PANC-1 is a metastatic adenocarcinoma cell line. SUIT-2 is a pancreatic ductal adenocarcinoma cell line.
(§1) All cell lines were grown and maintained in RPMI medium supplemented with 10% fetal bovine serum (FBS, Invitrogen), 2 mM L-glutamine, 100 U/mL penicillin, and 100 μg/mL streptomycin. For cell the culture experiment, stock solution (10 mM) of each test compound was dissolved in dimethyl sulfoxide (DMSO; Sigma).
(§2) Cells were plated in 96-well plates at a density of 2000 cells per well in triplicate. The cells in each well were treated on the third day (to ensure proper plating efficiency and vitality) with different concentrations (0-50 μM) of each test compound for 48 h.
(§3) Cell viability was assessed using the sulforhodamine B (SRB) assay. The medium was discarded, and the adherent cells were fixed by 100 μL of cold 10% trichloroacetic acid (w/v) in each well for 1 h at 4° C. After fixation, cells were stained with 100 μL/well of 0.4% (w/v, in 1% acetic acid) SRB solution for 30 min at room temperature, and then washed 5 times with 1% acetic acid. After air-drying, 100 μL of 10 mM Tris base was added to each well and the absorbance was read at 530 nm. Cytotoxicity is expressed as the percent of cells in drug treated wells relative to number of cells in the solvent only control (set to 100%). Each experiment was performed independently in triplicate and cytotoxicity IC50 value of each test compound was calculated from cytotoxicity data obtained at various concentrations.

The test system of a further data set is lung cancer cells. Briefly: Cytotoxicity SRB assay, summary of Table 2. The class given is cell-based, Human. To be noted: summary in words of Table 2. The procedure, abridged: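 Cells plated at 2000/well, treated on day 3 with 0–50 μM compound for 48 h. Viability by SRB: TCA fixation, SRB staining, Tris solubilisation, absorbance at 530 nm, as percent of solvent control. IC50 calculated from triplicate independent experiments across concentrations.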

The subject of another data set is NSCLC cells. As to conditions: from WO2015/184794, WO2013/060305, Yeh et al. 2012; cited from earlier work.
Data set [1] concerns CSCs in human NSCLC cell lines. As to conditions: from US 2014/0294994, WO2013/060305, WO2015/184794; cited from earlier work.
The next data set deals with HCT116. In words: Cytotoxicity, sulforhodamine B (SRB) assay, HCT116. The class given is cell-based, human. As to conditions: Homo sapiens, HCT-116, HCT116, Colon, 48 h.
Description: (§4) Human non-small cell lung cancer (NSCLC) cell lines (e.g., A549, H441GL and H1299), colon cancer cell lines (e.g., HCT116 and DLD1), breast cancer cell lines (e.g., MCF7 and MDA-MB-231), and pancreatic cancer cell lines (e.g., PANC-1 and SUIT-2) were used in cytotoxicity studies. These NSCLC cell lines have intrinsic resistance to epidermal growth factor receptor (EGFR) inhibitors, e.g., gefitinib. A549 and H441GL are EGFR-wild type adenocarcinoma cell lines. H1299 is an EGFR-wild type large cell carcinoma cell line. HCT116 and DLD1 are metastatic colon cell lines. MCF7 is a hormone-responsive breast cancer cell line. MDA-MB-231 is a triple-negative breast cancer cell line. PANC-1 is a metastatic adenocarcinoma cell line. SUIT-2 is a pancreatic ductal adenocarcinoma cell line.
as §1, §2, §3

A further data set relates to DLD1. Briefly: Cytotoxicity, sulforhodamine B (SRB) assay, DLD1. The data set is classed as cell-based, human. To be noted: Homo sapiens, DLD-1, DLD1, Colon, 48 h.
Description: as §4, §1, §2, §3

Another data set relates to MCF7. Briefly: Cytotoxicity, sulforhodamine B (SRB) assay, MCF7. The data set is classed as cell-based, human. As to conditions: Homo sapiens, MCF7, Breast, 48 h. The procedure, abridged: (§5)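 48 h exposure, 0-50 μM compound, 2000 cells/well in triplicate, RPMI/10% FBS. TCA fix, 0.4% SRB stain, Tris solubilisation, A530. % of DMSO control → IC50.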
In a further data set the test system is MDA-MB-231. In words: Cytotoxicity, sulforhodamine B (SRB) assay, MDA-MB-231. The class given is cell-based, human. To be noted: Homo sapiens, MDA-MB-231, Breast, 48 h. Put shortly: as §5
A further data set relates to PANC-1. In words: Cytotoxicity, sulforhodamine B (SRB) assay, PANC-1. The data set is classed as cell-based, human. To be noted: Homo sapiens, PANC-1, Pancreas, 48 h, NA = no activity. The procedure, abridged: as §5
Another data set relates to SUIT-2. Briefly: Cytotoxicity, sulforhodamine B (SRB) assay, SUIT-2. The class given is cell-based, human. To be noted: Homo sapiens, SUIT-2, Pancreas, 48 h. The procedure, abridged:
as §5

A further data set deals with H441GL cells. Briefly: Study 2: tumor size in mouse lung cancer model. The data set is classed as in vivo, NOD/SCID mice. As to conditions: Study 2, 0.0127 mmol/kg daily, i.p.; for Tumor Size [Fold Change from Week 3 (Mean ± SD, n = 4)] Week 3: Week 3 (baseline, start of treatment). How it is done: H441GL cells (1×10^6 cells in 100 μL phosphate-buffered saline/injection) were subcutaneously injected into the right flank of NOD/SCID mice (female, 4-6 weeks old). Mice were allowed 2 weeks for tumor growth. On the first day of Week 3 post injection, tumor-bearing mice were randomly divided into control group (DMSO vehicle, intraperitoneal (i.p.) injection) and test compound treatment groups (5 mg/kg/day, 5 days/week, i.p. injection). Over the period of 10 weeks, tumorigenesis in both groups was measured using a caliper on a weekly basis. The change in tumor size was expressed as in fold change from Week 3. In this study body weight of each mouse was also recorded at the end of each study week.
In this study, the daily dose was 0.0127 mmol/kg instead of 5 mg/kg.

With `CN1CCN(CCCN2c3ccccc3Sc3ccc(C(F)(F)F)cc32)CC1` [TFP, trifluoperazine, reference compound], the IC50 in the data set on H441GL amounted to 21.6 µM; in the data set on A549 it was 23.5 µM; in the data set on H1299 it was 28.7 µM. Besides, the “inhibition of cell proliferation of lung cancer cells” value (“inhibition” below) in the data set on lung cancer cells is on record as “inhibit cell proliferation”. Moreover, the “cytotoxicity to NSCLC cells” value in the data set with NSCLC cells was “shown cytotoxicity”. The “anti-tumor effects, growth of CSCs in human NSCLC cell lines” value in data set [1] was “inhibiting the growth of CSCs”.

Take `COCC(COCC(COCC(COCCOCCOCCOCCOCCOCCOCCOCCOCCN1CCN(CCCN2c3ccccc3Sc3ccc(C(F)(F)F)cc32)CC1)OC)OC)OC` (stereo not shown) [Compound 25-2b, NDT-[CH2CH2O]n—[CH2CH(OCH3)CH2O]3—CH3]: the IC50 came to 11.4 µM in the data set with H441GL; 14 µM with A549; 13.9 µM in the data set with H1299; 11.4 µM in the data set with HCT116; 15.3 µM with DLD1; 10.9 µM with MCF7. Further, the IC50 worked out at 13.1 µM in the data set on MDA-MB-231, 2.9 µM with PANC-1 and 13 µM with SUIT-2. In the data set with H441GL cells, the “Tumor Size [Fold Change from Week 3 (Mean ± SD, n = 4)] Week 3” value was 1 ± 0 Fold Change. Moreover, the “Tumor Size [Fold Change from Week 3 (Mean ± SD, n = 4)] Week 9” value with H441GL cells is recorded as 13.0 ± 1.6 Fold Change. For the same compound, in the data set with H441GL cells, the “Tumor Size [Fold Change from Week 3 (Mean ± SD, n = 4)] Week 13” value is reported as 35.7 ± 5.3 Fold Change. For the same compound, in the data set with lung cancer cells, the “inhibition” value is given as “inhibit cell proliferation”.

Take `CN1CCN(CCCN2c3ccccc3Sc3ccc(Cl)cc32)CC1` [PCP, prochlorperazine]: the “inhibition” value in the data set on lung cancer cells was “inhibit cell proliferation”. Also, the “cytotoxicity to NSCLC cells” value with NSCLC cells was “shown cytotoxicity”. Further, in data set [1], the “anti-tumor effects, growth of CSCs in human NSCLC cell lines” value is recorded as “inhibiting the growth of CSCs”.

`Clc1ccc2c(c1)N(CCCN1CCNCC1)c1ccccc1S2` [NDP, 10-[3-(1-Piperazinyl)propyl]-2-chloro-10H-phenothiazine, reference compound]: the IC50 in the data set with H441GL worked out at 8.4 µM; with A549 it was 9.7 µM; in the data set on H1299, 6.6 µM. The “inhibition” value with lung cancer cells is reported as “inhibit cell proliferation”. The “cytotoxicity to NSCLC cells” value in the data set with NSCLC cells was “shown cytotoxicity”.

In the case of `COCC(COCC(COCC(COCCOCCOCCN1CCN(CCCN2c3ccccc3Sc3ccc(C(F)(F)F)cc32)CC1)OC)OC)OC` (stereo not shown) [Compound 25-1b, NDT-[CH2CH2O]n—[CH2CH(OCH3)CH2O]3—CH3], the IC50 in the data set with H441GL was found to be 8.8 µM; in the data set on A549, 11.4 µM; in the data set with H1299 it was 6.9 µM; in the data set on HCT116 it was 7.2 µM; with DLD1, 11.7 µM; in the data set with MCF7 it was 12.2 µM. In addition, the IC50 was found to be 11.2 µM in the data set on MDA-MB-231, 10 µM in the data set on PANC-1 and 10.9 µM with SUIT-2. In the data set on H441GL cells, the “Tumor Size [Fold Change from Week 3 (Mean ± SD, n = 4)] Week 3” value turned out to be 1 ± 0 Fold Change. The “Tumor Size [Fold Change from Week 3 (Mean ± SD, n = 4)] Week 9” value in the data set on H441GL cells came to 10.2 ± 1.4 Fold Change. Further, the “Tumor Size [Fold Change from Week 3 (Mean ± SD, n = 4)] Week 13” value in the data set with H441GL cells worked out at 25.0 ± 4.4 Fold Change. Further, the “inhibition” value with lung cancer cells is “inhibit cell proliferation”.
